{"source": "patent US9566265B2", "about": "“Carbazole compounds and therapeutic uses of the compounds” (Incuron, LLC, priority 2008, dated 2017)", "key": {"Bloodstream T. brucei": {"test_system": "Bloodstream T. brucei", "assay": "T. brucei bloodstream form in vitro killing", "format": "cell-based, Trypanosoma brucei", "procedure": "Preliminary T. brucei inactivation experiments were performed in vitro. The life cycle of T. brucei involves a “procyclic” developmental stage in a tsetse fly, and a “bloodstream” form in humans. All studies were performed with the bloodstream stage of the parasite, because it is the disease-causing developmental stage.\nSuramin, a conventional anti-HAT drug, was used as a positive control.\nBloodstream T. brucei was seeded (3×10^3 cells/mL) in 24-well (500 uL of the media per well) plate. […] Control cultures received equal volumes of DMSO."}, "C. lipolytica": {"test_system": "C. lipolytica", "assay": "in vitro susceptibility CLSI M27A3, MIC", "format": "cell-based", "conditions": "Yarrowia lipolytica, strain M159, WT, Susceptible", "source_text": "(§1) Other Candida spp. and genera: 1 C. rugosa (M83), 1 C. lipolytica (M159), C. lusitaniae (200450), 1 Cryptococcus neoformans (499), and 1 Debaryomyces hansenii."}, "C. lusitaniae": {"test_system": "C. lusitaniae", "assay": "in vitro susceptibility CLSI M27A3, MIC", "format": "cell-based", "conditions": "Clavispora lusitaniae, strain 200450, WT, Susceptible", "source_text": "as §1"}, "C. rugosa": {"test_system": "C. rugosa", "assay": "in vitro susceptibility CLSI M27A3, MIC", "format": "cell-based", "conditions": "Diutina rugosa, strain M83, WT, Susceptible", "source_text": "as §1"}, "Cryptococcus neoformans": {"test_system": "Cryptococcus neoformans", "assay": "in vitro susceptibility CLSI M27A3, MIC", "format": "cell-based", "conditions": "strain 499, WT, Susceptible", "source_text": "as §1"}, "Debaryomyces hansenii": {"test_system": "Debaryomyces hansenii", "assay": "in vitro susceptibility CLSI M27A3, MIC", "format": "cell-based", "conditions": "strain 20124, WT, Susceptible", "source_text": "as §1"}, "[1]": {"test_system": "clinical and laboratory fungal strains", "assay": "in vitro susceptibility, summaries over groups of fungal strains", "format": "cell-based, Aspergillus spp., yeast", "source_text": "Aspergillus spp. […] Moreover, there were no MIC differences between susceptible and azole or echinocandin resistant strains (Table 1).\nOn average, yeast MICs were 8-fold lower than Aspergillus spp. MIC (Table 1). MICs obtained for Example 15 are compatible or better than MICs for conventional antifungal drugs."}, "HB 101 E. coli": {"test_system": "HB 101 E. coli", "assay": "antibacterial cytotoxicity assay, gram(−) bacteria (OD600)", "format": "cell-based", "conditions": "48 hours, over a range of potencies, FIG. 13A"}, "bacteria": {"test_system": "bacteria", "assay": "antibacterial cytotoxicity assay, comparison with ampicillin control", "format": "cell-based", "procedure": "In particular, the effect of carbazole compounds of the present invention on gram positive (Bacillus subtilis) and gram negative (DH5-α) bacteria was determined by the following procedure, and is summarized in FIGS. 13A and 13B.\nEach library chemical to be tested requires 2 rows of a 96-well plate, thus 4 chemicals (e.g. W, X, Y, Z) can be tested in one plate simultaneously. In addition to test chemicals, each plate should include positive and negative controls. As positive control, ampicillin is used at 100 μg/ml. As a negative control, DMSO is used in an amount equal to the highest volume of test compound used (˜0.25% DMSO for 50 μM).\nBesides a positive control added in one concentration on each plate, the positive control of ampicillin is added to each assay run in a full concentration range (3 fold dilutions) to ensure proper and robust assay performance (estimated by comparison of dose response curves among runs).\nThe average OD600 nm of the test compound solutions are compared to that of the DMSO control by dividing the average OD600 nm of the test solution by that of the DMSO control and multiplying by 100 to produce the % DMSO control (i.e. % cytotoxicity). The % DMSO control is plotted vs compound concentration to generate sigmoid shaped curves. After three runs are complete, the raw data for all three runs is used for IC50 calculations."}, "A. fumigatus": {"test_system": "A. fumigatus", "assay": "in vitro susceptibility CLSI M38A2, MIC", "conditions": "Aspergillus fumigatus", "quoted_text": "(§2) Eight Aspergillus spp. strains were used throughout the study. Six A. fumigatus, one A. flavus and one A. terreus also were used. The A. fumigatus group included two itraconazole-resistant strains (RIT13 and RIT5 strains) (1), one triazole cross-resistant strain (MUT10) (2, 3), one echinocandin cross-resistant strain (EMFRS678P) (4), and 2 wild type susceptible isolates (R21 and ATCC13073)."}, "A. flavus": {"test_system": "A. flavus", "assay": "in vitro susceptibility CLSI M38A2, MIC", "conditions": "Aspergillus flavus", "quoted_text": "as §2"}, "A. terreus": {"test_system": "A. terreus", "assay": "in vitro susceptibility CLSI M38A2, MIC", "conditions": "Aspergillus terreus", "quoted_text": "as §2"}}, "note": "Where two headings read alike, the source gives them in different places.", "data": [{"compound": "CCN(CC)CCn1c2ccc3c(c2c2c4c(ccc21)C(=O)CC4)CCC3=O", "note": "[Example 15]", "values": [{"measurement": "elimination of parasites", "setting": "Bloodstream T. brucei; 48 hrs, up to 200 nM Example 7, 20 nM Example 13, 3 nM Example 15", "result": "completely eliminated T. brucei"}, {"measurement": "IC50", "setting": "Bloodstream T. brucei; Trypanosoma brucei, read-out: IC50 (concentration that killed 50% of the parasites), bloodstream stage, 48 hrs of culture", "result": "~0.5", "unit": "nM"}, {"measurement": "MIC", "setting": "C. lipolytica; read-out: MIC* (24 hs)", "result": 0.02, "unit": "µM"}, {"measurement": "MIC", "setting": "C. lipolytica; read-out: MIC* (48 hs)", "result": 0.08, "unit": "µM"}, {"measurement": "MIC", "setting": "C. lusitaniae; read-out: MIC* (24 hs)", "result": 0.04, "unit": "µM"}, {"measurement": "MIC", "setting": "C. lusitaniae; read-out: MIC* (48 hs)", "result": 0.16, "unit": "µM"}, {"measurement": "MIC", "setting": "C. rugosa; read-out: MIC* (24 hs)", "result": 0.16, "unit": "µM"}, {"measurement": "MIC", "setting": "C. rugosa; read-out: MIC* (48 hs)", "result": 0.66, "unit": "µM"}, {"measurement": "MIC", "setting": "Cryptococcus neoformans; read-out: MIC* (24 hs)", "result": 0.02, "unit": "µM"}, {"measurement": "MIC", "setting": "Cryptococcus neoformans; read-out: MIC* (48 hs)", "result": 0.08, "unit": "µM"}, {"measurement": "MIC", "setting": "Debaryomyces hansenii; read-out: MIC* (24 hs)", "result": 0.16, "unit": "µM"}, {"measurement": "MIC", "setting": "Debaryomyces hansenii; read-out: MIC* (48 hs)", "result": 0.16, "unit": "µM"}, {"measurement": "yeast MICs lower than Aspergillus spp. MIC, on average", "setting": "[1]", "result": 8, "unit": "fold"}, {"measurement": "MIC", "setting": "[1]; A. flavus and A. terreus strains, read-out: 24 hs MIC Geom. Means", "result": 0.4, "unit": "µM"}, {"measurement": "antibacterial effect", "setting": "HB 101 E. coli", "result": "antibacterial effect"}, {"measurement": "effectiveness against bacteria compared with the ampicillin control", "setting": "bacteria", "result": "more effective"}, {"measurement": "MIC", "setting": "A. fumigatus; ATCC13073, read-out: MIC* (24 hs), strain ATCC13073, WT, Susceptible", "result": 2.56, "unit": "µM"}, {"measurement": "MIC", "setting": "A. fumigatus; ATCC13073, read-out: MIC* (48 hs), strain ATCC13073, WT, Susceptible", "result": 5.13, "unit": "µM"}, {"measurement": "MIC", "setting": "A. fumigatus; read-out: 24 hs MIC Geom. Means, A. fumigatus strains", "result": 1.59, "unit": "µM"}, {"measurement": "MIC", "setting": "A. fumigatus; read-out: MIC* (24 hs), strain EMFRS678P, Fks1pS678P, Echinocandin cross-resistant", "result": 1.28, "unit": "µM"}, {"measurement": "MIC", "setting": "A. fumigatus; read-out: MIC* (24 hs), strain MUT10, Cyp51Ap G138C, Triazole cross resistant", "result": 0.66, "unit": "µM"}, {"measurement": "MIC", "setting": "A. fumigatus; read-out: MIC* (24 hs), strain R21, WT, Susceptible", "result": 1.28, "unit": "µM"}, {"measurement": "MIC", "setting": "A. fumigatus; read-out: MIC* (24 hs), strain RIT5, Itraconazole resistant", "result": 0.66, "unit": "µM"}, {"measurement": "MIC", "setting": "A. fumigatus; read-out: MIC* (24 hs), strain RIT13, Itraconazole resistant", "result": 1.61, "unit": "µM"}, {"measurement": "MIC", "setting": "A. fumigatus; read-out: MIC* (48 hs), strain EMFRS678P, Fks1pS678P, Echinocandin cross-resistant", "result": 2.56, "unit": "µM"}, {"measurement": "MIC", "setting": "A. fumigatus; read-out: MIC* (48 hs), strain MUT10, Cyp51Ap G138C, Triazole cross resistant", "result": 1.28, "unit": "µM"}, {"measurement": "MIC", "setting": "A. fumigatus; read-out: MIC* (48 hs), strain R21, WT, Susceptible", "result": 2.56, "unit": "µM"}, {"measurement": "MIC", "setting": "A. fumigatus; read-out: MIC* (48 hs), strain RIT5, Itraconazole resistant", "result": 1.28, "unit": "µM"}, {"measurement": "MIC", "setting": "A. fumigatus; read-out: MIC* (48 hs), strain RIT13, Itraconazole resistant", "result": 1.28, "unit": "µM"}, {"measurement": "MIC", "setting": "A. flavus; read-out: MIC* (24 hs)", "result": 0.33, "unit": "µM"}, {"measurement": "MIC", "setting": "A. flavus; read-out: MIC* (48 hs)", "result": 0.33, "unit": "µM"}, {"measurement": "MIC", "setting": "A. terreus; read-out: MIC* (24 hs)", "result": 0.08, "unit": "µM"}, {"measurement": "MIC", "setting": "A. terreus; read-out: MIC* (48 hs)", "result": 1.28, "unit": "µM"}]}]}
